Converted amounts (≈) assume the structure as drawn.
Legend:
APAE001 (ATCC27853) = assay: MIC broth microdilution, APAE001; type: cell-based, P. aeruginosa; conditions: Pseudomonas aeruginosa, ATCC27853, read-out: MIC APAE001, APAE001 is ATCC27853
Outline: (§1)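 CLSI-guided microdilution: bacteria passaged overnight at 35° C. on Mueller-Hinton agar, tested in cation-adjusted broth at a final 3×10^5–7×10^5 CFU/mL across 2-fold drug dilutions, read after 18-24 h at 35° C.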

AECO001 (ATCC25922) = assay: MIC broth microdilution, AECO001; type: cell-based, E. coli; conditions: Escherichia coli, ATCC25922, read-out: MIC AECO001
Outline: as §1

[1] = system: APAE006 (strain of P. aeruginosa in which all efflux pumps are inactivated); assay: microbe, parasite or virus in culture; type: cell-based; conditions: Pseudomonas aeruginosa, read-out: MIC APAE006, P. aeruginosa, all efflux pumps inactivated
Outline: (§2)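 Two-fold drug dilutions in cation-adjusted MHB were inoculated to 3×10^5–7×10^5 CFU/mL and held at 35° C. for 18-24 hours (ambient air), following CLSI. APAE006 is an efflux-deficient P. aeruginosa.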

[2] = system: APAE006 in the presence of 8 micrograms per milliliter of polymyxin B nonapeptide; type: cell-based, P. aeruginosa; conditions: in the presence of 8 micrograms per milliliter of polymyxin B nonapeptide
Outline: as §2

[3] = system: ASAU001 (laboratory strain of S. aureus, ATCC29213); assay: MIC broth microdilution, ASAU001; type: cell-based; conditions: Staphylococcus aureus, ATCC29213, read-out: MIC ASAU001
Outline: as §1

AECO001 HSA AGP = assay: MIC broth microdilution, AECO001 HSA AGP; type: cell-based, E. coli; conditions: Escherichia coli
Protocol: Bacterial isolates were cultivated from −70° C. frozen stocks by overnight passages at 35° C. in ambient air on Mueller-Hinton agar (Beckton Dickinson, Franklin Lakes, N.J.). Clinical isolates tested were obtained from various geographically diverse hospitals in the US and abroad (Focus Diagnostics, Herndon, Va. and JMI, North Liberty, Iowa). Quality control strains were from the American Type Culture Collection (ATCC; Rockville, Md.). Additional primary panel strains were generated using standard molecular biology techniques.
Minimum Inhibitory Concentrations (MICs) were determined by the broth microdilution method in accordance with the Clinical and Laboratory Standards Institute (CLSI) guidelines. In brief, organism suspensions were adjusted to a 0.5 McFarland standard to yield a final inoculum between 3×10^5 and 7×10^5 colony-forming units (CFU)/mL. Drug dilutions and inocula were made in sterile, cation adjusted Mueller-Hinton Broth (Beckton Dickinson). An inoculum volume of 100 μL was added to wells containing 100 μL of broth with 2-fold serial dilutions of drug. All inoculated microdilution trays were incubated in ambient air at 35° C. for 18-24 hours. […] Performance of the assay was monitored by the use of laboratory quality-control strains and levofloxacin, a compound with a defined MIC spectrum, in accordance with CLSI guidelines.
*AECO001 is ATCC25922, AECO063 is ATCC25922 bearing an acrAB mutation, APAE001 is ATCC27853, APAE006 is a strain of P. aeruginosa in which all efflux pumps are inactivated, APAE006+PMBN indicates MICs with the indicated strain in the presence of 8 micrograms per milliliter of polymyxin B nonapeptide, AABA1060 is a clinical isolate of Acinetobacter baumannii, ASAU001 is a laboratory strain of S. aureus (ATCC29213).

[4] = system: AECO063 (ATCC25922 bearing an acrAB mutation); assay: microbe, parasite or virus in culture; type: cell-based, E. coli; conditions: Escherichia coli, ATCC25922, read-out: MIC AECO063
Outline: as §1

[5] = system: AABA1060 (clinical isolate of Acinetobacter baumannii); assay: MIC broth microdilution, AABA1060; type: cell-based; conditions: Acinetobacter baumannii, read-out: MIC AABA1060
Outline: as §1

| SMILES | MIC (APAE001 (ATCC27853)) [µg/mL] | MIC (AECO001 (ATCC25922)) [µg/mL] | MIC [1] [µg/mL] | MIC APAE006 + PMBN [2] | MIC [3] [µg/mL] | MIC (AECO001 HSA AGP) [µg/mL] | MIC [4] [µg/mL] | MIC [5] [µg/mL] |
| --- | --- | --- | --- | --- | --- | --- | --- | --- |
| C[C@@H](O)[C@H](NC(=O)c1ccc(C#CC#Cc2ccc(C(F)(F)F)cc2)cc1)C(=O)NO [Example 82-6] | 2 to 16 (≈ 4.65 to 37.2 µM) | < 2 | 2 to 16 (≈ 4.65 to 37.2 µM) | A (MIC's of 2.0 μg/mL or less = A) | 16 to 64 (≈ 37.2 to 149 µM) | 2 to 16 (≈ 4.65 to 37.2 µM) | < 2 | 16 to 64 (≈ 37.2 to 149 µM) |
| C[C@@H](N)[C@H](NC(=O)c1ccc(/C=C/C#Cc2ccccc2)cc1)C(=O)NO [Example 114-1, N-((1S,2R)-2-Amino-1-hydroxycarbamoyl-propyl)-4-((E)-4-phenyl-but-1-en-3-ynyl)-benzamide] | < 2 | < 2 | < 2 | A (MIC's of 2.0 μg/mL or less = A) | 2 to 16 (≈ 5.5 to 44 µM) | 2 to 16 (≈ 5.5 to 44 µM) | < 2 | < 2 |
| O=C(NC(C(=O)NO)C(F)(F)F)c1ccc(/C=C/C#Cc2ccc(CN3CCOCC3)cc2)cc1 (stereo not drawn) [Example 110-12] | 2 to 16 (≈ 4.1 to 32.8 µM) | < 2 | < 2 | A (MIC's of 2.0 μg/mL or less = A) | 16 to 64 (≈ 32.8 to 131 µM) | < 2 | < 2 | < 2 |
| O=C(CNC1CC1)NC[C@H](NC(=O)c1ccc(C#CC#Cc2ccccc2)cc1)C(=O)NO [Example 85-1, N—[(S)-2-(2-Cyclopropylamino-acetylamino)-1-hydroxycarbamoyl-ethyl]-4-(4-phenyl-buta-1,3-diynyl)-benzamide] | 2 to 16 (≈ 4.5 to 36 µM) | < 2 | < 2 | A (MIC's of 2.0 μg/mL or less = A) | 16 to 64 (≈ 36 to 144 µM) | 2 to 16 (≈ 4.5 to 36 µM) | < 2 | 16 to 64 (≈ 36 to 144 µM) |
| CC(C)(O)[C@H](NC(=O)c1ccc(C#CC#Cc2ccc(CNC3CC3)cc2)cc1)C(=O)NO [Example 87-3] | < 2 | < 2 | < 2 | A (MIC's of 2.0 μg/mL or less = A) | 16 to 64 (≈ 35.9 to 144 µM) | < 2 | < 2 | < 2 |
| C[C@H](N)[C@H](NC(=O)c1ccc(C#Cc2ccc(CN3CCOCC3)cc2)cc1)C(=O)NO [Example 133-2] | < 2 | < 2 | < 2 | A (MIC's of 2.0 μg/mL or less = A) | > 64 | 16 to 64 (≈ 36.7 to 147 µM) | < 2 | 16 to 64 (≈ 36.7 to 147 µM) |
| CC(C)(O)[C@H](NC(=O)c1ccc(C#C/C=C/c2ccc(CN3CCOCC3)cc2)cc1)C(=O)NO [Compound 97-2] | < 2 | < 2 | < 2 | A (MIC's of 2.0 μg/mL or less = A) | 16 to 64 (≈ 33.5 to 134 µM) | < 2 | < 2 | < 2 |
| C[C@@H](O)[C@H](NC(=O)c1ccc(/C=C/C#Cc2ccc(CO)cc2)cc1)C(=O)NO [Example 112-3] | 2 to 16 (≈ 5.07 to 40.6 µM) | < 2 | < 2 | A (MIC's of 2.0 μg/mL or less = A) | 16 to 64 (≈ 40.6 to 162 µM) | 16 to 64 (≈ 40.6 to 162 µM) | < 2 | 16 to 64 (≈ 40.6 to 162 µM) |
| C[C@@H](NC(=O)CNC1CC1)[C@H](NC(=O)c1ccc(C#Cc2ccc(CN3CCOCC3)cc2)cc1)C(=O)NO [Example 137-2] | 2 to 16 (≈ 3.75 to 30 µM) | < 2 | < 2 | A (MIC's of 2.0 μg/mL or less = A) | > 64 | 2 to 16 (≈ 3.75 to 30 µM) | < 2 | 16 to 64 (≈ 30 to 120 µM) |
| C[C@H](N)[C@H](NC(=O)c1ccc(C#Cc2ccc(CNC3CC3)cc2)cc1)C(=O)NO [Example 133-3] | < 2 | < 2 | < 2 | A (MIC's of 2.0 μg/mL or less = A) | > 64 | 2 to 16 (≈ 4.92 to 39.4 µM) | < 2 | 16 to 64 (≈ 39.4 to 157 µM) |
| C[C@@H](N)[C@H](NC(=O)c1ccc(C#Cc2ccc(CNCc3nccn3C)cc2)cc1)C(=O)NO [Example 119-3] | 2 to 16 (≈ 4.34 to 34.7 µM) | 2 to 16 (≈ 4.34 to 34.7 µM) | < 2 | A (MIC's of 2.0 μg/mL or less = A) | > 64 | 2 to 16 (≈ 4.34 to 34.7 µM) | < 2 | 16 to 64 (≈ 34.7 to 139 µM) |
| C[C@@H](N)[C@H](NC(=O)c1ccc(C#Cc2ccc(CN3CCCOCC3)cc2)cc1)C(=O)NO [Example 118-7] | < 2 | < 2 | < 2 | A (MIC's of 2.0 μg/mL or less = A) | 16 to 64 (≈ 35.5 to 142 µM) | 2 to 16 (≈ 4.44 to 35.5 µM) | < 2 | 2 to 16 (≈ 4.44 to 35.5 µM) |
| C[C@@H](N)[C@H](NC(=O)c1ccc(/C=C/C#Cc2ccc(CO)cc2)cc1)C(=O)NO [Example 112-1] | < 2 | < 2 | < 2 | A (MIC's of 2.0 μg/mL or less = A) | > 64 | 16 to 64 (≈ 40.7 to 163 µM) | < 2 | 2 to 16 (≈ 5.08 to 40.7 µM) |
| NC[C@H](NC(=O)c1ccc(C#C/C=C/c2ccc(CNC3CC3)cc2)cc1)C(=O)NO [Example 102-3] | < 2 | < 2 | < 2 | A (MIC's of 2.0 μg/mL or less = A) | 16 to 64 (≈ 38.2 to 153 µM) | 2 to 16 (≈ 4.78 to 38.2 µM) | < 2 | 16 to 64 (≈ 38.2 to 153 µM) |
| C[C@@H](N)[C@H](NC(=O)c1ccc(C#CC#Cc2ccc(N)cc2)cc1)C(=O)NO [Example 82-16] | < 2 | < 2 | < 2 | A (MIC's of 2.0 μg/mL or less = A) | 16 to 64 (≈ 42.5 to 170 µM) | 2 to 16 (≈ 5.31 to 42.5 µM) | < 2 | < 2 |

From patent US9617256B2 (priority 2007, dated 2017)
